Results taken from patent US20060122279A1, “Hydrophobic polyamine amides as potent lipopolysaccharide sequestrants” (priority 2004, published 2006).

Key:
[1] = test system: TNF-α and IL-6 production in whole human blood; test: Multiplexed cytokine assay ex vivo in human blood stimulated with LPS; type: cell-based; conditions: versus polymyxin B
Method: The activity of a subset of active Lys-spermine compounds is examined for their ability to inhibit TNF-α and IL-6 production in whole human blood, stimulated ex vivo with LPS.
100 μl aliquots of fresh whole blood, anticoagulated with EDTA, obtained by venipuncture from healthy human volunteers with informed consent and as per guidelines approved by the Human Subjects Experimentation Committee, is exposed to an equal volume of 50 ng/ml of E. coli 0111:B4 LPS, with graded concentrations of test compounds diluted in saline for 4 h in a 96-well microtiter plate. The effect of the compounds on modulating cytokine production examined using a FACSArray multiplexed flow-cytometric bead array (CBA) system (Becton-Dickinson-Pharmingen, San Jose, Calif.). The system uses a sandwich ELISA-on-a-bead principle,^55;56 and is comprised of 6 populations of microbeads that are spectrally unique in terms of their intrinsic fluorescence emission intensities (detected in the FL3 channel of a standard flow cytometer). […] After washing the beads, a mixture of optimally paired second antibodies conjugated to phycoerythrin is added which then forms a fluorescent ternary complex with the immobilized cytokine, the intensity (measured in the FL2 channel) of which is proportional to the cytokine concentration on the bead. […] The data are analyzed in the CBA software suite that is integral to the FACSArray system.

[2] = type: binding, E. coli 0111:B4; conditions: E. coli 0111:B4 LPS; Tables 1-3; read-out: ED50 (half-maximal effective displacement of BC probe from LPS)
Method: Polymyxin B (PMB), a peptide antibiotic known to bind and neutralize LPS^47 serves as the positive control and reference compound for every plate, enabling the quantitative assessment of repeatability and reproducibility (CV and Z′ factors) for the assay. Robotic liquid handling is performed on a Precision 2000 automated microplate pipetting system, programmed using the Precision Power software, Bio-Tek Instruments Inc., VT, USA. Stock solutions of LPS (5 mg/ml; E. coli 0111:B4; procured from Sigma) and BC (500 μM) are prepared in Tris buffer (pH 7.4, 50 mM). 1 ml each of the LPS and BC stocks are mixed and diluted in Tris buffer to a final volume of 100 ml, yielding final concentrations of 50 μg/ml of LPS and 5 μM BC. 40 μl of this BC:LPS mixture is added to each well of the plate using the Precision 2000. Fluorescence measurements are made at 25° C. on a Fluoromax-3 with Micromax Microwell 384-well plate reader, using DataMax software, Jobin Yvon Inc., N.J. The BC excitation wavelength is 580 nm, emission spectra are taken at 620 nm with both emission and excitation monochromator bandpasses set at 5 nm.

CCCCCCCCCCCCCCCCCC(=O)NCCCCC(N)C(=O)NCCCNCCCCNCCCN [Compound 8, D-Lys-ε-(stearoyl)-N^1-spermine]
inhibitory potency on TNF-α and IL-6 production [1]: almost as potent as polymyxin B | EC50 [2]: 8.8 µM
